Test results taken from patent US5223527A, “Isatineoxime derivatives and their use” (NeuroSearch A/S, priority 1992, dated 1993).
Read-outs that look alike come from different tables or passages of the source.

What was measured:
[1] = test system: AMPA-induced clonic seizures in NMRI mice; assay: AMPA-induced clonic seizures (AMPA seizure test); type: in vivo; conditions: Mus musculus, female NMRI mice, dose inhibiting 50% of the mice from having clonic seizures
Procedure: AMPA given icv (intracerebroventricular) (15 μg/kg) NMRI to mice induces clonic seizures which should be inhibited by non-NMDA receptor antagonists.
Test compound was given i.v. 5 min (or p.o. 30 min) before a 0.3 μg icv administration of AMPA to 10 female NMRI mice (weighing 24-26 g) per dose. The number of mice experiencing clonic seizures within the next 5 min was noted. An ED50 value was calculated as the dose inhibiting 50% of the mice from having clonic seizures.

[2] = biological target: AMPA binding site; assay: AMPA binding assay (T. Honore et al., Neuroscience Letters 54, 27-32 (1985))

IC50 [2]: 2000 nM
SMILES: CN(C)S(=O)(=O)c1cc2c(c3c1CCCC3)NC(=O)C2=NO [5-N,N-dimethylsulfamoyl-1H-6,7,8,9-tetrahydrobenz[g]indole-2,3-dione-3-oxime]
ED50 ([1]; iv, 5 min, administered i.v. 5 min before 0.3 μg icv AMPA, read-out: ED50 in the AMPA seizure test, i.v.): 3 mg/kg
ED50 ([1]; po, 0.5 h, administered orally (p.o.) 30 min before 0.3 μg icv AMPA, read-out: ED50 in the AMPA seizure test, orally): 30 mg/kg
